Results reported in PubChem BioAssay AID1996.
Values after ≈ are worked out from the molar mass of the structure shown.

conditions: buffer; pH 7.4; 200.0 µM

Row | solubility kinetic | SMILES
1 | 5.2 µg/mL (≈ 13.2 µM) | CS(=O)(=O)c1cccc(C(=O)OCC(=O)NC(=O)Nc2ccccc2F)c1
2 | > 48.8 µg/mL | C/C(=N\Nc1nc(C)cc(C)n1)c1ccc(N2CCOCC2)cc1
3 | < 0.4 µg/mL | CN1C(=O)/C(=C/c2ccc(OCc3cccc(F)c3)cc2)NC1=S
4 | > 43.4 µg/mL | CC(=O)c1cn(-c2ccc([N+](=O)[O-])cc2)c(=O)n(C)c1=O
5 | 17.5 µg/mL (≈ 37.4 µM) | O=C(COC(=O)c1ccc(F)c(S(=O)(=O)N2CCOCC2)c1)NCCc1ccc(F)cc1
6 | > 49.2 µg/mL | Cl.Clc1ccc(-c2ccc(CNCC3CCCO3)o2)cc1 (stereo not given)
7 | 46.6 µg/mL (≈ 147 µM) | N#Cc1ccc(OCC(O)CS(=O)(=O)c2ccccc2)cc1 (stereo not given)
8 | 43.3 µg/mL (≈ 141 µM) | COCCNc1oc(Cc2cccc3ccccc23)nc1C#N
9 | 26.5 µg/mL (≈ 129 µM) | Oc1ccc(NCc2cccs2)cc1
10 | > 61.1 µg/mL | COc1ccc(C(=O)OCC(=O)c2c(N)n(C)c(=O)n(C)c2=O)c(OC)c1OC
11 | 2.1 µg/mL (≈ 6.35 µM) | COC(=O)CN1C(=O)Nc2ccc(Cl)cc2C1c1ccccc1 (stereo not given)
12 | < 0.1 µg/mL | CN(c1ccccc1)c1nc(N)c([N+](=O)[O-])c(Nc2ccccc2F)n1
13 | 39.1 µg/mL (≈ 138 µM) | CNC(=O)COC(=O)c1c2c(nc3ccccc13)CCC2
14 | 19 µg/mL (≈ 62.4 µM) | O=C(OCc1nc(-c2ccccc2Cl)no1)c1ccco1
15 | > 54.7 µg/mL | COc1ccc(S(=O)(=O)N2CCN(c3cnccn3)CC2)cc1OC
16 | 3.1 µg/mL (≈ 9.88 µM) | Cc1onc(-c2ccccc2)c1C(=O)Nc1ccc(Cl)cn1
17 | < 0.4 µg/mL | CC12CC3(C)CC(C)(C1)CC(C(=O)NC(=S)N1CCCC1)(C2)C3
18 | 5.6 µg/mL (≈ 19.8 µM) | S=C(NCc1ccccc1)N1CCc2ccccc2C1
19 | 22.3 µg/mL (≈ 76.7 µM) | O=C(NC12CC3CC(CC(C3)C1)C2)c1cccnc1Cl
20 | 49.1 µg/mL (≈ 135 µM) | CC(=O)Nc1ccc(NC(=O)CCCn2cnc3ccccc3c2=O)cc1
21 | < 0.2 µg/mL | Cc1nc(Sc2ccc(Cl)cc2)c(C#N)c(C)c1[N+](=O)[O-]
22 | > 38 µg/mL | O=S(=O)(Nc1ncccn1)c1ccc(F)cc1
23 | < 0.6 µg/mL | CCCOc1ccc(/C=C/C(=O)NC2CCCCC2)cc1

Row | solubility kinetic | SMILES
24 | > 45.2 µg/mL | Cc1[nH]c2ccc(C(=O)NCCN3CCOCC3)cc2c1C
25 | 7.7 µg/mL (≈ 20.7 µM) | O=C(CNC(=O)c1ccc(Cl)cc1)OCN1C(=O)c2ccccc2C1=O
26 | 4.4 µg/mL (≈ 15.4 µM) | Oc1ccc(Br)cc1CNc1nccs1
27 | 41.4 µg/mL (≈ 122 µM) | Nc1cccc(Oc2ccc3c(c2)C(=O)N(CC2CCCO2)C3=O)c1 (stereo not given)
28 | > 38.4 µg/mL | O=C1CSC(c2ccccc2)N1c1cccnc1 (stereo not given)
29 | 11.6 µg/mL (≈ 32.4 µM) | CCOC(=O)c1c(/N=C/c2ccc(C)cc2O)sc2c1CCN(C)C2
30 | > 52.1 µg/mL | COc1ccc(C(=O)OCC(=O)c2ccc(CNC(C)=O)s2)cc1
31 | 39.8 µg/mL (≈ 115 µM) | CCCc1nc2oc3ccccc3c(=O)c2c(=O)n1-c1ccc(C)cc1
32 | 1.6 µg/mL (≈ 5.38 µM) | CCc1ccc(C(C)NC(=O)c2ccc3c(c2)OCO3)cc1 (stereo not given)
33 | > 50.8 µg/mL | COc1ccccc1NS(=O)(=O)c1ccc(OC)c([N+](=O)[O-])c1
34 | 31.5 µg/mL (≈ 85.1 µM) | CCOC(=O)CN1C(=O)C2(OCCCO2)c2cc(Br)ccc21
35 | > 59.9 µg/mL | CCN(C(=O)CN1CCCCCC1)c1c(N)n(Cc2ccccc2)c(=O)[nH]c1=O
36 | 2.7 µg/mL (≈ 8.81 µM) | COc1ccc(NC(=O)NC2CCCCCCC2)cc1OC
37 | 25.6 µg/mL (≈ 89.4 µM) | N/C(=N\OC(=O)c1ccncc1)c1cccc([N+](=O)[O-])c1
38 | 34 µg/mL (≈ 85.2 µM) | COCC(C)n1c(C)cc(C(=O)COC(=O)c2cnc(Cl)c(Cl)c2)c1C (stereo not given)
39 | 23.5 µg/mL (≈ 88.4 µM) | O=C(Cc1cccs1)NCc1ccc(Cl)cc1
40 | 45.3 µg/mL (≈ 139 µM) | Cc1c(C(=O)N2CCOCC2)cc(C(C)(C)C)n1-c1ccccc1
41 | 36.7 µg/mL (≈ 112 µM) | O=C(Cn1c(CO)nc2ccccc21)NCCc1ccc(F)cc1
42 | > 40.7 µg/mL | CCCn1cnc2cc(NCc3cccs3)ccc21
43 | 3.9 µg/mL (≈ 12.4 µM) | Cc1cc(C)c(O)c(NC(=S)NC(=O)Cc2ccccc2)c1
44 | 19.3 µg/mL (≈ 35.9 µM) | CCOc1ccc(S(=O)(=O)N2CCN(C(=O)c3ccc(C)c(S(=O)(=O)N4CCOCC4)c3)CC2)cc1
45 | 35.8 µg/mL (≈ 139 µM) | COc1ccc(-n2cnc3sccc3c2=O)cc1
46 | 2.8 µg/mL (≈ 7.34 µM) | COc1ccccc1NC(=O)Nc1sccc1-c1nc2ccccc2s1

Row | solubility kinetic | SMILES
47 | > 62.9 µg/mL | COc1ccc(OC)c(S(=O)(=O)N2CCCC(C(=O)NCc3ccccn3)C2)c1 (stereo not given)
48 | > 74.2 µg/mL | CN1CCC(N(C)S(=O)(=O)c2ccc(NC(=O)c3ccc(S(=O)(=O)N(C)C)cc3)cc2)CC1
49 | 10 µg/mL (≈ 38.3 µM) | CC(C)(C)c1csc(NC(=O)c2cccnc2)n1
50 | > 50 µg/mL | CCCCCn1cnnc1SCC(=O)c1ccc2c(c1)OCO2
51 | 8.4 µg/mL (≈ 25.7 µM) | O=C1NC2(CCCCC2)C(=O)N1Cc1cccc(C(F)(F)F)c1
52 | 3.3 µg/mL (≈ 9.75 µM) | CC/C(O)=C1\C(=O)CCCC1=NCCc1c(C)[nH]c2ccc(C)cc12
53 | 3.7 µg/mL (≈ 11.4 µM) | O=C(Cc1cccc2ccccc12)NCCOc1ccccc1F
54 | > 52.1 µg/mL | COc1ccc(NC(=O)CN(C)CC(=O)NC2CCC(C)CC2)cc1 (stereo not given)
55 | 1.7 µg/mL (≈ 6.29 µM) | Cn1c(CNC(=O)C2CCCCC2)cc2ccccc21
56 | > 49.2 µg/mL | CC(=O)N1CC2([N+](=O)[O-])CN(C(C)=O)CC([N+](=O)[O-])(C1)C2(C)C
57 | < 0.3 µg/mL | CC1Cc2ccccc2N1Cc1ccc([N+](=O)[O-])cc1 (stereo not given)
58 | > 55.7 µg/mL | CC(C)(CN=C1NS(=O)(=O)c2ccccc21)CNC(=O)c1ccccc1
59 | 22.6 µg/mL (≈ 67.2 µM) | Cc1ccc(NC(=O)CCN2CCC(Cc3ccccc3)CC2)cc1
60 | 0.9 µg/mL (≈ 2.64 µM) | CCOC(=O)c1sc(=NC(=O)c2c(F)cccc2F)n(C)c1C
61 | 24.7 µg/mL (≈ 96.7 µM) | COc1ccccc1CNC(=O)Cc1ccccc1
62 | 36.6 µg/mL (≈ 150 µM) | O=C(CN1CCCCC1)N1CCc2ccccc21
63 | 4.1 µg/mL (≈ 12.9 µM) | Cc1cc(C)cc(C(=O)OCC(=O)NC(=O)NC2CCCC2)c1
64 | > 71.8 µg/mL | O=C(O)CSc1nnc(-c2cccc(S(=O)(=O)N3CCOCC3)c2)n1-c1ccc(F)cc1
65 | > 48.6 µg/mL | O=C(Nc1nnc(Cc2ccc(Cl)cc2)s1)C1CCCO1 (stereo not given)
66 | 25.9 µg/mL (≈ 87.1 µM) | CCOC(=O)C1CCN(Cc2ccc3ccccc3c2)CC1
67 | > 65 µg/mL | CC(NC(=O)C1CCN(C(=O)c2ccc(F)cc2)CC1)c1ccc(S(N)(=O)=O)cc1 (stereo not given)
68 | 40.9 µg/mL (≈ 145 µM) | CCC(=O)OCC(=O)Nc1cc([N+](=O)[O-])ccc1OC
69 | > 49.4 µg/mL | COc1ccc(C2C(C(C)=O)=C(C)Nc3ncnn32)cc1[N+](=O)[O-] (stereo not given)

Row | solubility kinetic | SMILES
70 | > 49.1 µg/mL | CC(=O)C1=C(O)C(=O)N(c2ccc(O)cc2)C1c1ccccc1F (stereo not given)
71 | 4.1 µg/mL (≈ 12.1 µM) | O=C(c1cc(-c2ccc(Cl)cc2Cl)on1)N1CCCCCC1
72 | > 39.7 µg/mL | COc1ccc(C(=O)NC(=S)N2CCCC2)cc1
73 | 14.6 µg/mL (≈ 34.2 µM) | O=C(CSc1ccccc1)Nc1ccc(Cl)c(S(=O)(=O)N2CCOCC2)c1
74 | > 40.7 µg/mL | CC1CCC(NC(=O)CSc2nncs2)CC1 (stereo not given)
75 | > 48.6 µg/mL | CC1(c2ccc(Cl)cc2)NC(=O)N(CN2CCOCC2)C1=O (stereo not given)
76 | > 62.2 µg/mL | O=C(Nc1nnc(-c2ccccc2)o1)c1cccc(S(=O)(=O)N2CCOCC2)c1
77 | 48.6 µg/mL (≈ 147 µM) | Cc1ccc(CN2CCCC(CO)(Cc3ccccc3C)C2)s1 (stereo not given)
78 | 27.5 µg/mL (≈ 95.4 µM) | Cc1ccc(C)c(C(=O)CSc2nc(C)cc(=O)[nH]2)c1
79 | > 64.3 µg/mL | O=C(CSc1ncccn1)Nc1ccc(Cl)c(S(=O)(=O)N2CCOCC2)c1
80 | 38.4 µg/mL (≈ 113 µM) | CC(C)C(C(=O)Nc1ccccc1F)N1C(=O)c2ccccc2C1=O (stereo not given)
81 | > 41.5 µg/mL | S=C(NCC1CCCO1)N1CCc2ccccc2C1 (stereo not given)
82 | 51.3 µg/mL (≈ 149 µM) | COc1ccc(CCNC(=O)Cc2ccc([N+](=O)[O-])cc2)cc1OC
83 | < 0.2 µg/mL | CCN(CC)c1cc(C)c2cc(NC(=O)c3cccs3)ccc2n1
84 | 6.7 µg/mL (≈ 19.4 µM) | O=C(NCCc1ccc(Cl)cc1)C1CCN(c2ncccn2)CC1
85 | > 53.5 µg/mL | CCN(CC)CCNc1ccc(CO)c2sc3ccccc3c(=O)c12
86 | < 0.3 µg/mL | COc1ccc(-c2nc(-c3cccs3)no2)cc1
87 | > 48.5 µg/mL | O=C(COC(=O)c1nsc(Cl)c1Cl)NC1CCCC1
88 | 43.7 µg/mL (≈ 139 µM) | COc1ccccc1C(=O)NCCC(=O)Nc1ccc(C)cn1
89 | 24.2 µg/mL (≈ 56.6 µM) | CCN(c1ccccc1)S(=O)(=O)c1ccc(OC)c(NC(=O)c2ccc(=O)[nH]c2)c1
90 | > 51.2 µg/mL | O=C(CCc1ccccc1)NCC(=O)N/N=C/c1ccc(O)cc1O
91 | > 47.3 µg/mL | CCOC(=O)c1ccc(NC(=S)NCc2cccnc2)cc1
92 | > 53.6 µg/mL | O=C(NCc1cccnc1)/C(=C/c1ccccc1)NC(=O)c1ccccc1

Row | solubility kinetic | SMILES
93 | > 42.2 µg/mL | Cc1ccc(S(=O)(=O)NC(=O)C2CCCCC2)cc1
94 | 4.3 µg/mL (≈ 16.6 µM) | COc1ccc(C(=O)CNc2cccc(F)c2)cc1
95 | 1.5 µg/mL (≈ 5.31 µM) | CCCc1cc(C(=O)Nc2ccc(F)c(Cl)c2)no1
96 | < 0.7 µg/mL | Cc1cc2c(cc1C)C(c1ccccc1OC(C)C)CC(=O)N2 (stereo not given)
97 | 7.8 µg/mL | Cc1ccccc1C(=O)N1CCN(C(c2ccccc2)c2ccccc2)CC1.Cl
98 | > 46.2 µg/mL | NC(=O)COn1c(SCC(N)=O)nc2ccccc2c1=O
99 | < 0.7 µg/mL | O=C(NC1CCCCC1)c1ccc(-c2ccc(Cl)cc2)o1
100 | 45.4 µg/mL (≈ 128 µM) | Cc1ccc(C)c(NC(=O)C2CC(O)CN2C(=O)Oc2ccccc2)c1 (stereo not given)
101 | < 0.2 µg/mL | c1ccc(-n2cccc2)c(N2CCCCC2)c1
102 | 47.4 µg/mL (≈ 146 µM) | OCC1CCCN(c2ncnc3scc(-c4ccccc4)c23)C1 (stereo not given)
103 | > 38.6 µg/mL | CN(C)CCCNC(=O)C(=O)NCC1CCCO1 (stereo not given)
104 | < 0.2 µg/mL | COc1ccc(NC(=O)Nc2cccc(C)n2)c(OC)c1
105 | 33 µg/mL (≈ 129 µM) | O=C1C2=C(CCCC2)C(=O)N1CNc1ccccc1
106 | 13.7 µg/mL (≈ 35.4 µM) | COc1cccc2cc(C(=O)OCC(=O)NC3CCCC(C)C3C)c(=O)oc12 (stereo not given)
107 | > 48.7 µg/mL | O=C(N/C(=C/c1ccccc1)C(=O)N1CCCCC1)c1ccco1
108 | 0.8 µg/mL (≈ 2.21 µM) | COc1cc2ccccc2cc1C(=O)Nc1ccc(N2CCOCC2)cc1
109 | > 42.7 µg/mL | CC1CCCCC1NC(=O)c1ccc(-n2cncn2)cc1 (stereo not given)
110 | 1.4 µg/mL (≈ 3.69 µM) | CC(C)(C)N(Cc1cc2ccccc2[nH]c1=O)C(=O)c1cccc([N+](=O)[O-])c1
111 | 2.7 µg/mL (≈ 8.32 µM) | COc1ccc(NC(=O)c2cc3cc(C)ccc3n2C)c(OC)c1

Row | SMILES | solubility kinetic
112 | CCCN1CCC[C@H](c2cccc(O)c2)C1.Cl | > 38.4 µg/mL
113 | CCc1c(C)nc(N)nc1N1N=C1SCCOc1ccccc1 | > 49.4 µg/mL
114 | Cc1cccc(OP(N)(=O)Oc2cccc(C)c2C)c1C | 3.9 µg/mL (≈ 12.8 µM)
115 | Cc1ccc(OC(F)F)c(N2C(=O)C3C4CCC(O4)C3C2=O)c1 (stereo not given) | > 48.5 µg/mL
